Drawing on ChEMBL document CHEMBL5653615 (J Biol Chem, 2013), this text covers inhibition for two compounds.

The target of test [1] is STE20-like serine/threonine-protein kinase (Homo sapiens) (UniProt Q9H2G2). In words: Inhibition of human STK2 at 500 nM by HotSpot assay relative to control.
The target of test [2] is Serine/threonine-protein kinase OSR1 (Homo sapiens) (UniProt O95747). The test is described as follows: Inhibition of human OXSR1 at 500 nM by HotSpot assay relative to control.
The target of test [3] is Maternal embryonic leucine zipper kinase (Homo sapiens) (UniProt Q14680). In words: Inhibition of human MELK at 500 nM by HotSpot assay relative to control.
Sequence of Maternal embryonic leucine zipper kinase (Homo sapiens) (Q14680 whole entry, looked up): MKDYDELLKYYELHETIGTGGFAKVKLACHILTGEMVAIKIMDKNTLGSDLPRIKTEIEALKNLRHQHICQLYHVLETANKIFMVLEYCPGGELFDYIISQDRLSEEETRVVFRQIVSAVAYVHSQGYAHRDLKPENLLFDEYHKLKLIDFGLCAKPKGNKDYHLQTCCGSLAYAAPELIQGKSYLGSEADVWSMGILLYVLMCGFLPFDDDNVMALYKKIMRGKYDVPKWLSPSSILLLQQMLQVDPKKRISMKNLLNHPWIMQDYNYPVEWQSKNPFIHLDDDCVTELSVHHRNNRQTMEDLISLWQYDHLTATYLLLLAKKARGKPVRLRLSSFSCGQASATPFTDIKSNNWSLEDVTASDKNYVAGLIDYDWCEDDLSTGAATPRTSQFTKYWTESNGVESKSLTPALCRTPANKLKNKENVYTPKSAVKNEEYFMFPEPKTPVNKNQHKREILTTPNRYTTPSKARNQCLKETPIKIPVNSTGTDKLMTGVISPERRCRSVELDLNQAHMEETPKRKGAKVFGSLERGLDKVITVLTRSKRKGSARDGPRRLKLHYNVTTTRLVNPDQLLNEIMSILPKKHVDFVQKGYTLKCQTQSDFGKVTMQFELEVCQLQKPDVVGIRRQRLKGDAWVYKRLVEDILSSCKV
For test [4], the target named is Tyrosine-protein kinase Srms (Homo sapiens) (UniProt Q9H3Y6). The test is described as follows: Inhibition of human SRMS at 500 nM by HotSpot assay relative to control.
Sequence of Tyrosine-protein kinase Srms (Homo sapiens) (Q9H3Y6 whole entry): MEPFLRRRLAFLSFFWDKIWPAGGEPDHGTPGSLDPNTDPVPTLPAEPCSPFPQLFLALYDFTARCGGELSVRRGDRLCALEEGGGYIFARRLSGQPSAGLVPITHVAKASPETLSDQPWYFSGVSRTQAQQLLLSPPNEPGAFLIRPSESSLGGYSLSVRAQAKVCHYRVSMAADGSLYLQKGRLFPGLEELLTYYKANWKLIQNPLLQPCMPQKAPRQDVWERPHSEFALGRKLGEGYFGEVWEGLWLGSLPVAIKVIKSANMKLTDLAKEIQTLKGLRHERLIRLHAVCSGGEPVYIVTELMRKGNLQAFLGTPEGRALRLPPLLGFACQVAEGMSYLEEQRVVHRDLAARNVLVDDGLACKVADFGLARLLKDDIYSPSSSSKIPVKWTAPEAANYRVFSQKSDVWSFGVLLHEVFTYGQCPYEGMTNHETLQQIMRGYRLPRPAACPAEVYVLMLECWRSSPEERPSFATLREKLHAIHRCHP
In test [5] the target is T1, Tyrosine-protein kinase ZAP-70 (Homo sapiens) (UniProt P43403).
T1 sequence (whole entry): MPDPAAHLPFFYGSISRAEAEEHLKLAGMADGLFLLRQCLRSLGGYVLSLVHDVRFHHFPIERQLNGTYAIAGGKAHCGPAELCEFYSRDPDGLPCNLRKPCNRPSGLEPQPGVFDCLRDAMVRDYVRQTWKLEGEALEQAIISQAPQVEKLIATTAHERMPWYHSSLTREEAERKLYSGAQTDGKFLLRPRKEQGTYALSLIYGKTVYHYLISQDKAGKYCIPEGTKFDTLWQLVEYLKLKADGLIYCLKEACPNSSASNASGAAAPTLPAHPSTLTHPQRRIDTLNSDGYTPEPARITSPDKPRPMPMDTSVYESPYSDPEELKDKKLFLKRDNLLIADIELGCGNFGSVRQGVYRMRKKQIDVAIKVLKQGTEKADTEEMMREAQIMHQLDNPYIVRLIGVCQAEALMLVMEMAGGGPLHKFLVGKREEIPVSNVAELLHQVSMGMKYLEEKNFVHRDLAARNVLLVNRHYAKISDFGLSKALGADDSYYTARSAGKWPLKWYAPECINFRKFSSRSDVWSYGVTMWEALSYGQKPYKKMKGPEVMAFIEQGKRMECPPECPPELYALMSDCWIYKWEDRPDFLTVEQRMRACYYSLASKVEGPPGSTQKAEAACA
The test is described as follows: Inhibition of human ZAP70 at 500 nM by HotSpot assay relative to control.

The species entered for test [6] is Homo sapiens. In words: Inhibition of human TAO1 at 500 nM by HotSpot assay relative to control.
Test [7] deals with T2, Aurora kinase C (Homo sapiens) (UniProt Q9UQB9).
T2 sequence (whole entry): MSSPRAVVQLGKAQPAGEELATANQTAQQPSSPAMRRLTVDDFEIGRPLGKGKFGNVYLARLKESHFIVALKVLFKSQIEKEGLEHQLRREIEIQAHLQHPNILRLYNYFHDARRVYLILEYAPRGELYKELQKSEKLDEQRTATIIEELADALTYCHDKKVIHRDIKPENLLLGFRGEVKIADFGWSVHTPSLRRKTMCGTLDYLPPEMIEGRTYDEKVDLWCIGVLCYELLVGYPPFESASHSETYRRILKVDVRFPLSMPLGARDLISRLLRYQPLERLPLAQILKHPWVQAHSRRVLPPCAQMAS
The test is described as follows: Inhibition of human Aurora C at 500 nM by HotSpot assay relative to control.

Test [8] concerns the target T3, Rhodopsin kinase GRK7 (Homo sapiens) (UniProt Q8WTQ7).
T3 sequence (whole entry): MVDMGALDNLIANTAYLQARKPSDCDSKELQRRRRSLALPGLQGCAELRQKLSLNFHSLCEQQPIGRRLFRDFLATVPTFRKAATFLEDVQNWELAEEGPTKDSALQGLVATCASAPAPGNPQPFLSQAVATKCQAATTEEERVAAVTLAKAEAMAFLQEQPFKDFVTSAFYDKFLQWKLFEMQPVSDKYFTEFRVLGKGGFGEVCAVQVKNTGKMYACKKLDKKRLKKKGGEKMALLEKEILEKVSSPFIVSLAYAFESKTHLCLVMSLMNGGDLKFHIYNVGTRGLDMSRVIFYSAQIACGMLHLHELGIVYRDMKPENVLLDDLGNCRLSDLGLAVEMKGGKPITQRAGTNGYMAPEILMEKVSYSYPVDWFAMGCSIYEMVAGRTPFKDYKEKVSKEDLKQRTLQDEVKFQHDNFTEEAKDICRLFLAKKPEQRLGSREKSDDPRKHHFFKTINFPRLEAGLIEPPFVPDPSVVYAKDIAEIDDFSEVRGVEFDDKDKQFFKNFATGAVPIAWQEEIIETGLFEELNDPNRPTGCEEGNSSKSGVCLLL
In words: Inhibition of human GRK7 at 500 nM by HotSpot assay relative to control.

The target of test [9] is Misshapen-like kinase 1 (Homo sapiens) (UniProt Q8N4C8). In words: Inhibition of human MINK1 at 500 nM by HotSpot assay relative to control.
Sequence of Misshapen-like kinase 1 (Homo sapiens) (Q8N4C8 whole entry, looked up, canonical isoform): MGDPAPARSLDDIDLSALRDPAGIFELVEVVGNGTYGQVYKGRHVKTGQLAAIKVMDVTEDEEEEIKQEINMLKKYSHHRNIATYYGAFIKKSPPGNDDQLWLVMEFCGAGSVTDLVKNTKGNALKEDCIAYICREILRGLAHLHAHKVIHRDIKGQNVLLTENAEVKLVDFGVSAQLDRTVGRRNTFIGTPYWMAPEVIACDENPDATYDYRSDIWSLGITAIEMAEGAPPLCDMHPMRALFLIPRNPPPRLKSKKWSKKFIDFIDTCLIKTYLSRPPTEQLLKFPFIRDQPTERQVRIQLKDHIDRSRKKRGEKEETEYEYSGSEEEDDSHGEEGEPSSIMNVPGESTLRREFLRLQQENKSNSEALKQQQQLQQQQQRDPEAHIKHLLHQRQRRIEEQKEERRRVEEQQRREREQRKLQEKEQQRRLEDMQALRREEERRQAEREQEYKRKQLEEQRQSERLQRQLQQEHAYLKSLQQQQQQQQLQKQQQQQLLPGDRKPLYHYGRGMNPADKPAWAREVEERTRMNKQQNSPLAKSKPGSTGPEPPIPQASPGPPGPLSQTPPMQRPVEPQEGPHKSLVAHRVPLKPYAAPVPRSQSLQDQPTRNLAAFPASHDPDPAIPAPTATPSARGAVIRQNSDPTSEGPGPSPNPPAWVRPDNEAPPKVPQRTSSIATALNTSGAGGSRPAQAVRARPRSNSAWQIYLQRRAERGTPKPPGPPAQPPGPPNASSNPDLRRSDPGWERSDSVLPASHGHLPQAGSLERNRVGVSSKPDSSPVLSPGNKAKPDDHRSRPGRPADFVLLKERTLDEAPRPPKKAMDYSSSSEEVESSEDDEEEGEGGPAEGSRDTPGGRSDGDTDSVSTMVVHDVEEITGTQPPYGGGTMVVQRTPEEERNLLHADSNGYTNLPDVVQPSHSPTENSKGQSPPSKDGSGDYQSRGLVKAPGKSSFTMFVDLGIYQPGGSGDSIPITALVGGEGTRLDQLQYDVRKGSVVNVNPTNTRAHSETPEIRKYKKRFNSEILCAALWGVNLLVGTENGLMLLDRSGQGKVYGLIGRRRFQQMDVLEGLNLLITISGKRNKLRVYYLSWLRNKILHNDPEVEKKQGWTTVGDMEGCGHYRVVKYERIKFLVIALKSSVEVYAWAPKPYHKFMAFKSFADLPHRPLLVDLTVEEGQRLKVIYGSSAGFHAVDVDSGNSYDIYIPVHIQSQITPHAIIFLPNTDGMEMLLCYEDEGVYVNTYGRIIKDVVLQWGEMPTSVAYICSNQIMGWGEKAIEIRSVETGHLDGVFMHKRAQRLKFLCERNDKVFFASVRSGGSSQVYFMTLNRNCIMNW
The target of test [10] is Casein kinase I isoform epsilon (Homo sapiens) (UniProt P49674). The test is described as follows: Inhibition of human CK1epsilon at 500 nM by HotSpot assay relative to control.
Sequence of Casein kinase I isoform epsilon (Homo sapiens) (P49674 whole entry, looked up, canonical isoform): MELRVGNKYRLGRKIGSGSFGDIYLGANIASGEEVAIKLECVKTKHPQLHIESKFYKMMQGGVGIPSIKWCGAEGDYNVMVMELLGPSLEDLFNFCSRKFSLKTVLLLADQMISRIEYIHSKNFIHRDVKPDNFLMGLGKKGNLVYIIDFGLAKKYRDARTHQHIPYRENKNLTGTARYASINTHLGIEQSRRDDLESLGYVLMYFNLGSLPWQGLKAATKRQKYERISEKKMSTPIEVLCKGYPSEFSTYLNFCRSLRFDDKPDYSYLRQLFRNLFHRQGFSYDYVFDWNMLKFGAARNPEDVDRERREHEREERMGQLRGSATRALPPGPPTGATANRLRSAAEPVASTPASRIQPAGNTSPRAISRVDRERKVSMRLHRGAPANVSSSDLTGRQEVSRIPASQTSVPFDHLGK
Test [11] deals with Protein kinase C eta type (Homo sapiens) (UniProt P24723). The test is described as follows: Inhibition of human PKCeta at 500 nM by HotSpot assay relative to control.
Sequence of Protein kinase C eta type (Homo sapiens) (P24723 whole entry): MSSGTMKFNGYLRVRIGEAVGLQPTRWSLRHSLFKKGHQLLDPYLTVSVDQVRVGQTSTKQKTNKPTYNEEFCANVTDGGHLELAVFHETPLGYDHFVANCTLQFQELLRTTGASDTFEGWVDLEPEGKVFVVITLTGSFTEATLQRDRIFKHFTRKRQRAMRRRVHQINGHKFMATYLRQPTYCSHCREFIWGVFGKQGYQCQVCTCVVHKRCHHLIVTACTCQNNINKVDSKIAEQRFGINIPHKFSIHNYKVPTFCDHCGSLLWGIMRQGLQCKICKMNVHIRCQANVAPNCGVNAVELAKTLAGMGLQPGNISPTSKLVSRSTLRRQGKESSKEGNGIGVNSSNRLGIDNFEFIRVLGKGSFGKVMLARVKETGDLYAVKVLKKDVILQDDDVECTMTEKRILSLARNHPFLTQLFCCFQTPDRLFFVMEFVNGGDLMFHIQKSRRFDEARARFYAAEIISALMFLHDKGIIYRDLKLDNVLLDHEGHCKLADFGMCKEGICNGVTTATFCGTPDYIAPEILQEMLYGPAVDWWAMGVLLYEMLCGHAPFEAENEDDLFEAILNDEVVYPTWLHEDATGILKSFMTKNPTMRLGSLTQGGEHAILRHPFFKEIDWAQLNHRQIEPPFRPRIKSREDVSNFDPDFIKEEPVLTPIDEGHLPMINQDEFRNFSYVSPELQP
The target in test [12] is MAP kinase-activated protein kinase 2 (Homo sapiens) (UniProt P49137). The test is described as follows: Inhibition of human MAPKAPK2 at 500 nM by HotSpot assay relative to control.
Sequence of MAP kinase-activated protein kinase 2 (Homo sapiens) (P49137 whole entry, looked up): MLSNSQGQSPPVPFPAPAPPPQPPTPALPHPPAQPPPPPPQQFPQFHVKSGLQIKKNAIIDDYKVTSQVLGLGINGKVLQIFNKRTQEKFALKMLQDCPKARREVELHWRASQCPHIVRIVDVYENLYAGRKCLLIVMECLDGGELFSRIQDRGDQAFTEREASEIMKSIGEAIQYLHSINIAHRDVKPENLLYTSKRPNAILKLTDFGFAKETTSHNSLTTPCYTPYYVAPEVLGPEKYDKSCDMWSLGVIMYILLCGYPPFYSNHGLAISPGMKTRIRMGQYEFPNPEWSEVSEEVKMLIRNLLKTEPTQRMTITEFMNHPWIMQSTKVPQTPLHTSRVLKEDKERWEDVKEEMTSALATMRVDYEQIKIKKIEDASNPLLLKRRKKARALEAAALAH
In test [13] the target is Dual specificity protein kinase CLK1 (Homo sapiens) (UniProt P49759). The test is described as follows: Inhibition of human CLK1 at 500 nM by HotSpot assay relative to control.
Sequence of Dual specificity protein kinase CLK1 (Homo sapiens) (P49759 whole entry, looked up): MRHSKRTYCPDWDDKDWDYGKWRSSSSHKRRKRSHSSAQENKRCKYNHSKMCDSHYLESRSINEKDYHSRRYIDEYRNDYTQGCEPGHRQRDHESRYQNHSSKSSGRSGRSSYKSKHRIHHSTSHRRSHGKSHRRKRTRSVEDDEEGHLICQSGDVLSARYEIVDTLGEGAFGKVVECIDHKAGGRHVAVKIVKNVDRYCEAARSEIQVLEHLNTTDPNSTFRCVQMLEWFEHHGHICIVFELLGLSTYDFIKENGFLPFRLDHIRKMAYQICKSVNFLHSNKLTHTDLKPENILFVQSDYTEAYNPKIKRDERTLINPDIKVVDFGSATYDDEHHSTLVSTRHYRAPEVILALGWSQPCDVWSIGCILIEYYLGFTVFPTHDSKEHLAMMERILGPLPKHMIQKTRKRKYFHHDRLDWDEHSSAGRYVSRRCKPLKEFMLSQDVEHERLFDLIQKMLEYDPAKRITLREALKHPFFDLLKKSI
Test [14] deals with Mitogen-activated protein kinase kinase kinase 11 (Homo sapiens) (UniProt Q16584). In words: Inhibition of human MAP3K11 at 500 nM by HotSpot assay relative to control.

Sequence of Serine/threonine-protein kinase OSR1 (Homo sapiens) (O95747 whole entry, looked up): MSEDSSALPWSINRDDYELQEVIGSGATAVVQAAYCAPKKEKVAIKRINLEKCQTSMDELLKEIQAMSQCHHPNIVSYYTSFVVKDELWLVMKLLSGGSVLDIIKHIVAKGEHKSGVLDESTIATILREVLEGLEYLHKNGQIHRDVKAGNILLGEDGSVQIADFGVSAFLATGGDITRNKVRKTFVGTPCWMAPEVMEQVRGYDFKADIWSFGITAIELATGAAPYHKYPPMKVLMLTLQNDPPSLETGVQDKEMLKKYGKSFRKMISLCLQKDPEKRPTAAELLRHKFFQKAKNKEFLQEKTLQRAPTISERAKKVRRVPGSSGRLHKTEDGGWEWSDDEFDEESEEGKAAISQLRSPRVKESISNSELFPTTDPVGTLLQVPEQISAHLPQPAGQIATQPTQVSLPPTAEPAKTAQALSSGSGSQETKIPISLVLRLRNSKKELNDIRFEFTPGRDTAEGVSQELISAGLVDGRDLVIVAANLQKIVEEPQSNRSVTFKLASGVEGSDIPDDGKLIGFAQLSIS

For `Oc1n[nH]c2nnc(-c3c(-c4ccccc4)nn4ccccc34)cc12`, the inhibition (in general, the drop in the measured response relative to a control, in per cent) in test [1] is 0.54%; in test [2], -8.54%; in test [3], -1.3%; in [4], 0.83%; in test [5] it was 5.7%; in test [6], 1.69%. Moreover, the inhibition in test [7] was 2.04%; in test [8], 6.89%; in [9], 2.28%; in test [10], 0.54%; in [11], 3.76%; in [12] it was -5.6%. Further, the inhibition in test [13] was -5.95%; in test [14], 2.87%.
Turning to `Nc1n[nH]c2nnc(-c3c(-c4ccccc4)nn4ccccc34)cc12`, the inhibition was 6.01% in [1]; -2.39% in test [2]; -1.59% in [3]; 7.04% in [4]; 9.86% in test [5]; -1.14% in test [6]. Besides, the inhibition in [7] is 3.59%; in test [8] it was 3.29%; in [9] it was 27.1%; in [10], 19.1%; in test [11] it was 22.8%; in test [12], -5.26%. In addition, the values for the inhibition in test [13] and in test [14] were -8.27% and 5.68%, respectively.
